In ChEMBL document CHEMBL5154739, “Structure-activity relationships of N-terminal variants of peptidomimetic tissue transglutaminase inhibitors” (Eur J Med Chem, 2022):

What was measured:
[1] = target: T1, Protein-glutamine gamma-glutamyltransferase (Homo sapiens) (UniProt P21980); test: (§1) Inhibition of TG2 (unknown origin) using Cbz-Glu(gamma-p-nitrophenyl ester)Gly (AL5) as substrate and measured by colorimetric assay
T1 sequence (whole entry): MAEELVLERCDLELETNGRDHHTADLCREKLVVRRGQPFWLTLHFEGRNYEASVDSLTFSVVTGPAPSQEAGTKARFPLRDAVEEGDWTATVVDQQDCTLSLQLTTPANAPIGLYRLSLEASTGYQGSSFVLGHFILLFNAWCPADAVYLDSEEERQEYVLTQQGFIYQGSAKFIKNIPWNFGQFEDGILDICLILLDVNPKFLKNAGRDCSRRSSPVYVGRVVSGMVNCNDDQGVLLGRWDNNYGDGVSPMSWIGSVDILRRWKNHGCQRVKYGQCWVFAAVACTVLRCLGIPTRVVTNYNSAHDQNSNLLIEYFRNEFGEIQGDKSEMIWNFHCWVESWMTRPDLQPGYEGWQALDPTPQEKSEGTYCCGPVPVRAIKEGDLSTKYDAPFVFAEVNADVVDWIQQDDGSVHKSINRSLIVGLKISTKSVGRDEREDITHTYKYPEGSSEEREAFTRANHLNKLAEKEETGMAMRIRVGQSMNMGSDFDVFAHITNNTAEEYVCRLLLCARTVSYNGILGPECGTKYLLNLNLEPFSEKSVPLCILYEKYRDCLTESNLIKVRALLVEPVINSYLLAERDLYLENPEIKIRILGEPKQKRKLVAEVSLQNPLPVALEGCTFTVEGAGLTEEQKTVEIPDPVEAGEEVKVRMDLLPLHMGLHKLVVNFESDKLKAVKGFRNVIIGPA

[2] = target: T2, Protein-glutamine gamma-glutamyltransferase (Homo sapiens, UniProt P21980); test: as §1
T2 sequence (P21980 whole entry): T1 sequence (whole entry)

[3] = target: T1, Protein-glutamine gamma-glutamyltransferase (Homo sapiens); test: Inhibition of TG2 (unknown origin) using Cbz-Glu(gamma-p-nitrophenyl ester)Gly (AL5) as substrate assessed as Kinact/Ki ratio and measured by colorimetric assay
[4] = Plasma protein binding (unknown origin); assay type: ADME, cell-free; details: read-out: PPB (converted)
[5] = Half-life in plasma (unknown origin); assay type: ADME, cell-free
P-gp [6] = test: Substrate activity at P-gp in dog MDCK cells assessed as apparent permeability across basolateral to apical membrane; assay type: ADME, cell-based, Canis lupus familiaris; details: MDCK-MDR1
MDR1 (P-gp) [7] = test: Efflux ratio of apparent permeability in dog MDCK-MDR1 cells; assay type: ADME, cell-based, Canis lupus familiaris
[8] = Plasma protein binding (unknown origin) assessed as drug recovery; assay type: ADME, cell-free; details: read-out: Drug recovery
P-gp [9] = test: Substrate activity at P-gp in dog MDCK cells assessed as apparent permeability across apical to basolateral membrane; assay type: ADME, cell-based, Canis lupus familiaris; details: MDCK-MDR1
P-gp [10] = test: Substrate activity at P-gp in dog MDCK cells assessed as efflux ratio; assay type: ADME, cell-based, Canis lupus familiaris; details: MDCK-MDR1
MDR1 (P-gp) [11] = test: Apparent permeability from apical to basolateral side in dog MDCK-MDR1 cells; assay type: ADME, cell-based, Canis lupus familiaris
MDR1 (P-gp) [12] = test: Apparent permeability from basolateral to apical side in dog MDCK-MDR1 cells; assay type: ADME, cell-based, Canis lupus familiaris
[13] = Anti-invasion activity against human SCC-13 cells assessed as inhibition of invasion incubated for 18 hrs by matrigel trans well plate assay; assay type: functional, cell-based; details: SCC-13, 18 h

| SMILES | Kinact [1] [min⁻¹] | Ratio [3] | also measured |
| --- | --- | --- | --- |
| C=CC(=O)NCCCC[C@H](NC(=O)c1cn(C)cn1)C(=O)N1CCN(C(=O)c2cccc3ccccc23)CC1 | 0.46 | 16 10^3/M/min | Ki [2]: 28.7 µM |
| C=CC(=O)NCCCC[C@H](NC(=O)C(C)(C)C)C(=O)N1CCN(C(=O)c2cccc3ccccc23)CC1 | 0.49 | 56.2 10^3/M/min | – |
| C=CC(=O)NCCCC[C@H](NC(=O)c1cccc2ccccc12)C(=O)N1CCN(C(=O)c2cccc3ccccc23)CC1 | 0.41 | 20.1 10^3/M/min | – |
| C=CC(=O)NCC(=O)N1CCN(S(=O)(=O)c2cccc3c(N(C)C)cccc23)CC1 | 0.387 | – | Ki [2]: 1.31 µM |
| C=CC(=O)NCCCC[C@H](NC(=O)Cc1ccccc1)C(=O)N1CCN(c2cccnc2)CC1 | – | 391 10^3/M/min | – |
| C=CC(=O)NCCCC[C@H](NC(=O)OCc1ccccc1)C(=O)N1CCN(C(=O)c2cccc3ccccc23)CC1 | 1.2 | 244 10^3/M/min | Ki [2]: 4.8 µM |
| C=CC(=O)NCCCC[C@H](NC(=O)CCc1ccccc1)C(=O)N1CCN(C(=O)c2cccc3ccccc23)CC1 | 0.6 | 214 10^3/M/min | – |
| C=CC(=O)NCCCC[C@H](NC(=O)C1CC1)C(=O)N1CCN(C(=O)c2cccc3ccccc23)CC1 | 1.02 | 96.6 10^3/M/min | – |
| C=CC(=O)NCCCC[C@H](NC(=O)Cc1ccccc1C)C(=O)N1CCN(C(=O)c2cccc3ccccc23)CC1 | 2.1 | 352 10^3/M/min | fraction unbound [4]: 0.15; half-life [5]: 9.47 h; Papp B→A (P-gp [6]): 3 ×10⁻⁶ cm/s; efflux ratio (MDR1 (P-gp) [7]): 51.6; recovery [8]: 93%; Papp A→B (P-gp [9]): 3.2 ×10⁻⁶ cm/s; efflux ratio (P-gp [10]): 0.93; Papp A→B (MDR1 (P-gp) [11]): 0.32 ×10⁻⁶ cm/s; Papp B→A (MDR1 (P-gp) [12]): 16.5 ×10⁻⁶ cm/s |
| C=CC(=O)NCCCC[C@H](NC(=O)Cc1cccc(Cl)c1Cl)C(=O)N1CCN(C(=O)c2cccc3ccccc23)CC1 | 0.46 | 170 10^3/M/min | – |
| C=CC(=O)NCCCC[C@H](NC(=O)Cc1cccc(F)c1)C(=O)N1CCN(C(=O)c2cccc3ccccc23)CC1 | 0.75 | 155 10^3/M/min | – |
| C=CC(=O)NCCCC[C@H](NC(C)=O)C(=O)N1CCN(C(=O)c2cccc3ccccc23)CC1 | 1.45 | 44.1 10^3/M/min | – |
| C=CC(=O)NCCCC[C@H](NC(=O)Cc1ccc(F)cc1)C(=O)N1CCN(C(=O)c2cccc3ccccc23)CC1 | 0.49 | 119 10^3/M/min | – |
| C=CC(=O)NCCCC[C@H](NC(=O)c1nccn1C)C(=O)N1CCN(C(=O)c2cccc3ccccc23)CC1 | 0.18 | 11.5 10^3/M/min | – |
| C=CC(=O)NCCCC[C@H](NC(=O)C1CCCCC1)C(=O)N1CCN(C(=O)c2cccc3ccccc23)CC1 | 0.33 | 33.6 10^3/M/min | – |
| C=CC(=O)NCCCC[C@H](NC(=O)c1cccc(F)c1)C(=O)N1CCN(C(=O)c2cccc3ccccc23)CC1 | 0.64 | 47.8 10^3/M/min | – |
| C=CC(=O)NCCCC[C@H](NC(=O)Cc1ccc(Cl)c(Cl)c1)C(=O)N1CCN(C(=O)c2cccc3ccccc23)CC1 | 0.08 | 131 10^3/M/min | – |
| C=CC(=O)NCCCC[C@H](NS(=O)(=O)CC)C(=O)N1CCN(C(=O)c2cccc3ccccc23)CC1 | 0.83 | 31.1 10^3/M/min | – |
| C=CC(=O)NCCCC[C@H](NC(=O)C(C)C)C(=O)N1CCN(C(=O)c2cccc3ccccc23)CC1 | 0.65 | 65.1 10^3/M/min | – |
| C=CC(=O)NCCCC[C@H](NC(=O)OCc1ccccc1)C(=O)NCCOCCOCCNS(=O)(=O)c1cccc2c(N(C)C)cccc12 | 0.41 | 14 10^3/M/min | Ki [2]: 29 µM; EC50 [13]: 20 µM |
| C=CC(=O)NCCCC[C@H](NC(=O)c1ccccc1F)C(=O)N1CCN(C(=O)c2cccc3ccccc23)CC1 | 0.39 | 39.4 10^3/M/min | – |
| C=CC(=O)NCCCC[C@H](NC(=O)Cc1ccccc1OC)C(=O)N1CCN(C(=O)c2cccc3ccccc23)CC1 | 1.4 | 299 10^3/M/min | – |

| SMILES | Kinact [1] [min⁻¹] | Ratio [3] | also measured |
| --- | --- | --- | --- |
| C=CC(=O)NCCCC[C@H](NC(=O)Cc1ccccc1C(F)(F)F)C(=O)N1CCN(C(=O)c2cccc3ccccc23)CC1 | 1 | 100 10^3/M/min | – |
| C=CC(=O)NCCCC[C@H](NC(=O)c1ccc2ccccc2c1)C(=O)N1CCN(C(=O)c2cccc3ccccc23)CC1 | 0.29 | 36.5 10^3/M/min | – |
| C=CC(=O)NCCCC[C@H](NC(=O)c1cncn1C)C(=O)N1CCN(C(=O)c2cccc3ccccc23)CC1 | 0.28 | 12.6 10^3/M/min | Ki [2]: 22.3 µM |
| C=CC(=O)NCCCC[C@H](NC(=O)CC1CCCCC1)C(=O)N1CCN(C(=O)c2cccc3ccccc23)CC1 | 0.26 | 20.9 10^3/M/min | – |
| C=CC(=O)NCCCC[C@H](NC(=O)c1ccccn1)C(=O)N1CCN(C(=O)c2cccc3ccccc23)CC1 | 0.39 | 9.6 10^3/M/min | – |
| C=CC(=O)NCCCC[C@H](NS(=O)(=O)c1ccccc1)C(=O)N1CCN(C(=O)c2cccc3ccccc23)CC1 | 0.63 | 7.1 10^3/M/min | – |
| C=CC(=O)NCCCC[C@H](NC(=O)Cc1ccc(F)cc1F)C(=O)N1CCN(C(=O)c2cccc3ccccc23)CC1 | 0.62 | 224 10^3/M/min | – |
| C=CC(=O)NCCCC[C@H](NC(=O)Cc1ccccc1)C(=O)N1CCN(c2ccc([N+](=O)[O-])nc2)CC1 | – | 508 10^3/M/min | – |
| C=CC(=O)NCCCC[C@H](NC(=O)c1ccncc1)C(=O)N1CCN(C(=O)c2cccc3ccccc23)CC1 | 0.24 | 12.7 10^3/M/min | – |
| C=CC(=O)NCCCC[C@H](NS(C)(=O)=O)C(=O)N1CCN(C(=O)c2cccc3ccccc23)CC1 | 0.57 | 22.6 10^3/M/min | Ki [2]: 253 µM |
| C=CC(=O)NCCCC[C@H](NS(=O)(=O)Cc1ccccc1)C(=O)N1CCN(C(=O)c2cccc3ccccc23)CC1 | 0.53 | 11.4 10^3/M/min | – |
| C=CC(=O)NCCCC[C@H](NC(=O)C1C2CC3CC(C2)CC1C3)C(=O)N1CCN(C(=O)c2cccc3ccccc23)CC1 (stereo partly drawn) | 0.23 | 14.9 10^3/M/min | – |
| C=CC(=O)NCCCC[C@H](NC(=O)c1cccnc1)C(=O)N1CCN(C(=O)c2cccc3ccccc23)CC1 | 0.59 | 23.3 10^3/M/min | – |
| C=CC(=O)NCCCC[C@H](NC(=O)c1ccc(F)cc1)C(=O)N1CCN(C(=O)c2cccc3ccccc23)CC1 | 0.9 | 55.4 10^3/M/min | – |
| C=CC(=O)NCCCC[C@H](NC(=O)Cc1ccccc1Br)C(=O)N1CCN(C(=O)c2cccc3ccccc23)CC1 | 3.1 | 310 10^3/M/min | EC50 [13]: 94 µM |
| C=CC(=O)NCCCC[C@H](NC(=O)OCc1ccccc1)C(=O)N1CCN(S(=O)(=O)c2cccc3c(N(C)C)cccc23)CC1 | 0.38 | 100 10^3/M/min | Ki [2]: 3.8 µM; EC50 [13]: 3.9 µM |
| C=CC(=O)NCCCC[C@H](NC(=O)Cc1ccccc1Cl)C(=O)N1CCN(C(=O)c2cccc3ccccc23)CC1 | 5.3 | 295 10^3/M/min | EC50 [13]: 92 µM |
| C=CC(=O)NCCCC[C@H](NC(=O)CCCc1ccccc1)C(=O)N1CCN(C(=O)c2cccc3ccccc23)CC1 | 0.21 | 39.6 10^3/M/min | – |
| C=CC(=O)NCCCC[C@H](NC(=O)Cc1cccc(Cl)c1)C(=O)N1CCN(C(=O)c2cccc3ccccc23)CC1 | 0.3 | 290 10^3/M/min | – |
| C=CC(=O)NCCCC[C@H](NC(=O)CC(C)C)C(=O)N1CCN(C(=O)c2cccc3ccccc23)CC1 | 0.64 | 66.7 10^3/M/min | – |
| C=CC(=O)NCCCC[C@H](NC(=O)CC)C(=O)N1CCN(C(=O)c2cccc3ccccc23)CC1 | 0.53 | 103 10^3/M/min | – |
